Results on 10 compounds are retold here after ChEMBL document CHEMBL1141818, “Annonaceous acetogenins: recent progress” (J Nat Prod, 1999).

Converted amounts (≈) assume the structure as drawn.

Test [1] in a line: Cytotoxicity against human CCM2 cells. Format: functional. The following applies: read-out: ED50 (the source's name).
Test [2] can be described thus: Cytotoxicity against human Hep G2 cells. Format: functional. The following applies: HepG2, read-out: ED50 (the source's name).
Test [3] can be described thus: Cytotoxicity against human Hep2.2.15 cells. In kind it is functional. To be noted: HepG2 2.2.15, read-out: ED50 (the source's name).
In test [4] the test system is MCF7. Briefly: Cytotoxicity against human MCF7 cells. Format: functional. The following applies: Homo sapiens, MCF7; read-out: ED50 (the source's name).
A further test has as its system PC-3. Briefly: Cytotoxicity against human PC-3 cells. Format: functional. The following applies: Homo sapiens, PC-3; read-out: ED50 (the source's name).
A further test has as its system MIA PaCa-2. Briefly: Cytotoxicity against human MIA PaCa2 cells. Format: functional. To be noted: Homo sapiens, MIA PaCa-2; read-out: ED50 (the source's name).
Another test has as its system A549. Briefly: Cytotoxicity against human A549 cells. The following applies: Homo sapiens, A549; read-out: ED50 (the source's name). Format: functional.
For another test, the system named is RPMI-7951. Briefly: Cytotoxicity against human RPMI-7951 cells. In kind it is functional. The following applies: read-out: ED50 (the source's name).
The next test concerns HT-29. Briefly: Cytotoxicity against human HT-29 cells. Format: functional. The following applies: Homo sapiens, HT-29; read-out: ED50 (the source's name).
For another test, the system named is U-251. Briefly: Cytotoxicity against human U251 cells. Format: functional, cell-based.
Test [5] concerns Blattella germanica. Briefly: Ratio of LT50 for Blattella germanica Muncie fifth instars to LT50 for Blattella germanica Jwax fifth instars. Format: functional.
In test [6] the test system is Blattella germanica. Briefly: Ratio of LT50 for Blattella germanica Muncie second instars to LT50 for Blattella germanica Jwax second instars. In kind it is functional.
For the next test, the system named is X5563. Briefly: Cytotoxicity against human X5563 cells. In kind it is functional.
A further test deals with Aedes aegypti. Briefly: Insecticidal activity against yellow fever mosquito. In kind it is functional.
Test [7] has as its system MCF7. Briefly: Cytotoxicity against human wild type MCF7 cells at 1 ug/ml. In kind it is functional.
The next test concerns KB. Briefly: Cytotoxicity against human KB cells. In kind it is functional, cell-based. To be noted: for IC50: Homo sapiens, KB.
A short description of test [8]: Inhibition of NADH oxidase.
In another test the test system is HCT-8. Briefly: Cytotoxicity against human HCT8 cells. In kind it is functional, cell-based.
The subject of a further test is HL-60. Briefly: Cytotoxicity against human HL-60 cells. In kind it is functional, cell-based.
A further test relates to A2780. Briefly: Cytotoxicity against human A2780 cells. In kind it is functional, cell-based.

Turning to `CCCCCCCCCCCC[C@@H](O)[C@H]1CC[C@H]([C@H](O)CC/C=C\CCCCCC[C@@H]2CC(CC(C)=O)C(=O)O2)O1` (mixture of isomers), the results for the EC50 in test [1], in test [2] and in test [3] were 0.085 µg/mL, 0.047 µg/mL and 0.14 µg/mL, respectively.

`CCCCCCCCCC[C@H](O)[C@@H]1CC[C@@H]([C@@H]2CC[C@@H]([C@@H](O)CCC(O)CCCCCCCCC[C@@H](O)CC3=C[C@H](C)OC3=O)O2)O1` (stereo partly drawn) [ARTICULIN]: the EC50 in the test with MCF7 [4] turned out to be 0.004 µg/mL (≈ 0.006 µM); in the test with PC-3, 1.9 µg/mL (≈ 2.85 µM); in the test on MIA PaCa-2, 1 µg/mL (≈ 1.5 µM); with A549 it was 0.006 µg/mL (≈ 0.009 µM); with RPMI-7951 it was 0.01 µg/mL (≈ 0.015 µM); in the test on HT-29, 0.6 µg/mL (≈ 0.9 µM). The EC50 in the test on U-251 (read-out: ED50 (the source's name)) stood at 0.01 µg/mL (≈ 0.015 µM).

Consider `CCCCCCCCCC[C@H](O)[C@H]1CC[C@H]([C@H](O)CC[C@H](O)[C@@H]2CC[C@@H](CCCCCCC[C@@H](O)CC3=C[C@H](C)OC3=O)O2)O1` [BULLATALICIN], for which the Ratio in the test on Blattella germanica [5] was 1.8; in the test on Blattella germanica [6], 0.9. Moreover, in the test on X5563, the Activity worked out at 67%. Also, in the test on Aedes aegypti, the LC50 turned out to be 0.1 µg/mL (≈ 0.157 µM).

Take `CCCCCCC(O)CCC[C@H](O)[C@@H]1CC[C@@H]([C@@H]2CC[C@H]([C@H](O)CCCCCCCCCCC3=C[C@H](C)OC3=O)O2)O1` (stereo partly drawn) [CAROLIN C]: the Activity with MCF7 [7] was determined as 50%. In the test on KB, this compound yielded an ED50 of 2 ×10⁻⁴ ug/ml.

For `CCCCCCCCCC[C@@H](O)[C@@H]1CC[C@@H]([C@@H]2CC[C@@H]([C@@H](O)CCCCC(=O)CCCCCCCC3=C[C@H](C)OC3=O)O2)O1` [GUANACONNE], in the test on U-251, the IC50 came out at 1.5 nM.

In the case of `CCCCCCCCCC[C@@H](O)[C@@H]1CC[C@H]([C@H]2CC[C@@H]([C@@H](O)CCCCCCCCCCC3=C[C@H](C)OC3=O)O2)O1` [MEMBRAROLLIN], in test [8], the IC50 stood at 0.3 nM.

Turning to `CCCCCCCCCC[C@H](O)[C@@H]1CC[C@H]([C@H]2CC[C@@H]([C@H](O)CCCCCCCC[C@@H](O)CC3=C[C@H](C)OC3=O)O2)O1` [ROLLIMEMBRIN], in [8], the IC50 was found to be 0.33 nM.

On to `CCCCCCCCCCCC[C@@H](O)[C@H]1CC[C@H]([C@H](O)CC(O)CCCCCCCCCC(=O)CCC2=C[C@H](C)OC2=O)O1` (stereo partly drawn) [TONKININ B], for which the IC50 is 2.4 µg/mL (≈ 3.85 µM) in the test with HCT-8, 0.06 µg/mL (≈ 0.0963 µM) in the test with HL-60, above 10 µg/mL in the test with A2780 and above 10 µg/mL in the test on KB.

On to `CCCCCCCCCCCCCC[C@H](O)[C@H]1CC[C@H]([C@@H](CC(O)CCCCCCCCCCC2=C[C@H](C)OC2=O)OC(C)=O)O1` (stereo partly drawn) [TONKININ C], for which the IC50 in the test on HCT-8 was 0.86 µg/mL (≈ 1.32 µM); in the test on HL-60, 0.00042 µg/mL (≈ 0.000645 µM); in the test with A2780, above 10 µg/mL; in the test on KB it was above 10 µg/mL.

In turn, `CCCCCCCCCC[C@@H](O)[C@H]1CC[C@@H]([C@H]2CC[C@H]([C@H](O)CCC[C@H](O)CCCCCCCC3=C[C@H](C)OC3=O)O2)O1` [TRILOBIN] displayed an LC50 in the test on Aedes aegypti of 0.67 µg/mL (≈ 1.1 µM).
